Laboratory results as given in patent publication US20180251431A1 (VERTEX PHARMACEUTICALS INCORPORATED, priority 2016, published 2018).
Entries after “also recorded” stand apart in the source; their conditions may differ.

How the values were obtained:
[1] = Metabolic intrinsic clearance in human hepatocytes; assay type: in vitro ADME; details: cryopreserved hepatocytes in suspension, pH 7.5, 0.5 million cells/mL, incubation for 4 hours
Method: The metabolic intrinsic clearance (CLint) of Compound 87 was determined in human, monkey, dog, rat, and mouse hepatocytes. Cryopreserved human hepatocytes (Lot Hue50c), monkey hepatocytes (cynomolgus; Lot Cy328), dog hepatocytes (beagle, Lot Db235), rat hepatocytes (Sprague Dawley; NNH), and mouse hepatocytes (CD-1; Lot Mc522) were obtained from ThermoFisher (Paisley, UK). In separate experiments, compound 87 (1 μM) was incubated with hepatocytes from each species (0.5 million cells/mL, suspension) in Dulbecco's Modified Eagle's Medium (DMEM) supplemented with 4-(2-Hydroxyethyl)piperazine-1-ethanesulfonic acid (HEPES, 9 mM) and fructose (2.2 mM) (pH 7.5). Samples were quenched with acetonitrile and analyzed by LC-MS/MS. The mean CLint for Compound 87 in human, monkey, dog, rat, and mouse hepatocytes after incubation for 4 hours was determined to be ≤2.5, ≤2.5, 7.2, 23.6 and 10.7 μL/min/million cells. Based on these date, Compound 87 was low to moderately metabolized in hepatocytes in mouse, rat, dog, monkey, and human, and the rank order of stability at […] was approximately human>monkey>dog>mouse>rat. […] The metabolic stability of Compound 87 was not expected.

ABCD1 knockout (KO) mice = assay: Reduction of blood C26:0 LPC in vivo in ABCD1 knockout mice (DBS, LC-MS/MS); set-up: species or system mouse
Method: Bioanalysis of LPC in Whole Blood and Brain Tissue:
A LC-MS/MS method of analyzing Lysophosphatidylcholine (LPC) in whole blood (dried blood spot card, DBS) and brain tissue samples was developed for measuring the abundance of saturated C16, C18, C20, C22, C24 and C26 LPC in DBS and brain samples. Whole blood was collected with Whatman DMPK-C DBS card at an approximate volume of 20 μL at each time point. Brain tissue was collected at the end point of the study. Samples were prepared and LC-MS/MS analysis was performed as described below.
Sample Preparation for LPC Bioanalysis:
For DBS bioanalysis, the DBS card was punched at 3 mm in diameter using a semi-automated DBS card puncher. To each punched spot 200 μL of pure methanol was added. The vial was vortexed at low speed for 20 minutes and centrifuged at 4000 rpm for 20 minutes. The clear supernatant was injected onto LC-MS/MS for analysis. For brain tissue bioanalysis, brain tissue was collected in a tared homogenization tube pre-filled with metal bead and weighted. To each sample vial two parts weight of methanol was added. The sample was homogenized using Precellys-24 at 5000 rpm for 20 seconds with one cycle. A 100 mg aliquot of homogenate was used for analysis. To each sample vial 400 μL of pure methanol was added. The vial was vortexed at low speed for 20 minutes and centrifuged at 4000 rpm for 20 minutes. The clear supernatant was injected onto LC-MS/MS for analysis.
The supernatant obtained from each sample was injected into a LC-MS/MS system (Agilent Technologies, Santa Clara, Calif. and Applied Biosystems, Framingham, Mass.) for analysis. All six LPC components (C16:0, C18:0, C20:0, C22:0, C24:0 and C26:0) were chromatographically separated using a Series 1290 binary pump and a Phenomenex (Torrance, Calif.) Kinetex C18 analytical column (2.1×100 mm, 5 μm particle diameter) with a 10-min gradient. A 5% acetonitrile in water solution was used as the aqueous phase and a 40% acetonitrile/60% methanol solution in 1% 2 Mol ammonium acetate was used as the organic mobile phase for achieving the chromatographic analysis. LPCs were detected by an AB Sciex API-6500 triple quadrupole MS with electrospray ionization in the mode of multiple reaction monitoring. Ions of Q1 were monitored at m/z of 496.6, 524.6, 552.6, 580.6, 608.6 and 636.6 for LPC 16:0, LPC 18:0, LPC 20:0, LPC 22:0, LPC 24:0 and LPC 26:0, respectively. A common Q3 ion m/z of 184.2 was used for all LPC analyses. C16:0 LPC levels were expressed as a concentration. All other LPC levels were expressed relative to C16. A one-way ANOVA with Dunnett's multiple comparisons test was performed to assess differences in LPC levels among the different groups. A value of P≤0.05 was considered statistically significant. All statistical analyses were conducted using Prism Software version 7.01 (GraphPad, La Jolla, Calif.).
Dosing in ABCD1 Knockout Mice:
To determine the effect of Compound 87 on blood VLCFA levels, Compound 87 was administered to ABCD1 knockout (KO) mice, a model that reproduces the C26:0 VLCFA accumulation observed in ALD patients. Specifically, Compound 87 was administered orally (PO) QD at 1, 8, or 16 mg/kg to ABCD1 KO mice (n=5 per group). DBS were collected on day 0 (pre-dosing), and daily through 14 days of dosing. DBS cards were stored at 4° C. in sealed ziplock bags with desiccant until they could be analyzed for LPC using the sample preparation and LC-MS/MS as described above. The vehicle used was 2% D-α-Tocopherol polyethylene glycol 1000 succinate (TPGS) and Compound 87 doses were prepared in 2% TPGS. […] Interperitoneal dosing, at 2 or 20 mg/kg (data not shown) or oral (PO) dosing at 1, 8, or 16 mg/kg (FIG. 2A) yielded similar results. A dose response was observed between 1 and 8 mg/kg. […] Error bars indicate standard deviation.
Daily Oral Dosing in ABCD1 Knockout Mice: […]

For O=C(Nc1ccn(-c2ccnc(F)c2)n1)C1(c2ccccc2F)CC1 [Compound 87, 1-(2-fluorophenyl)-N-[1-(2-fluoro-4-pyridyl)pyrazol-3-yl]cyclopropanecarboxamide], the hepatocyte CLint at 1 μM [1] was no more than 2.5 µL/min/1e6 cells, the “Plasma C26:0 LPC levels” value (ABCD1 knockout (KO) mice; ABCD1 KO mice, 1, 8, or 16 mg/kg PO QD for 14 days) was “dropped over the first 8 days before plateauing at near WT baseline levels” and the “reduction in C24:0 and C26:0 LPC levels compared to vehicle controls” value (ABCD1 knockout (KO) mice; ABCD1 KO mice, blood (DBS), 0.5 mg/kg PO QD for 28 days) was 50%. The “reduction in C26:0 LPC levels (dose response plateau)” value (ABCD1 knockout (KO) mice; ABCD1 KO mice, blood (DBS), plateau between the 4 mg/kg and 8 mg/kg doses, PO QD 28 days) was “approximately 75%”, the “time for LPC levels to return to baseline levels after compound discontinuation” value (ABCD1 knockout (KO) mice; adult female ABCD1 KO mice, 1 or 8 mg/kg PO QD for 14 days, then discontinued) was “approximately 1 week” and the “C26:0 LPC reducing effect after discontinuation of treatment” value (ABCD1 knockout (KO) mice; adult female ABCD1 KO mice, 1 or 8 mg/kg PO QD for 14 days, then discontinued, blood LPC followed another 2 weeks) was “reversible; also recorded: to about baseline level”. The “C26:0 LPC/C16:0 LPC levels in the blood” value (ABCD1 knockout (KO) mice; female ABCD1 KO mice, 1 and 10 mg/kg PO QD, 3 months of dosing) was “maintained at near WT levels”, the “reduction in C26:0 LPC levels in vivo” value (ABCD1 knockout (KO) mice; female ABCD1 KO mice, blood (DBS), 1 mg/kg PO QD for 3 months) was roughly 65% and the “reduction in C26:0 LPC levels in vivo” value (ABCD1 knockout (KO) mice; female ABCD1 KO mice, blood (DBS), 10 mg/kg PO QD for 3 months) was roughly 70%.
